# Legend:
# DIPGX29 [1] = H3.3 K27M diffuse intrinsic pontine glioma line; assay: maximal growth inhibition (yFin) relative to DMSO / staurosporine; higher = more efficacious
# Outline: (§1)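 Compounds were delivered by pin tool as a 10-point threefold dilution series with a mean top concentration of 35 μM, in triplicate, to patient-derived pHGG/DIPG cell lines and astrocyte controls growing on 1% Geltrex-coated 384-well plates. Incubation lasted 7 days, or 3 days for iAstro, at 37 °C with 5% CO2. EC50 and maximal response (yFin) come from the three- or four-parameter log-logistic fit with the lowest AICc, applied to pooled, log2-transformed CellTiter-Glo luminescence normalised per plate to % activity between solvent (negative) and positive control wells.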
# DIPGX37 [2] = H3.3 K27M diffuse intrinsic pontine glioma line; assay: as above
# Outline: as §1
# HGGX39 [3] = paediatric high-grade glioma line; assay: as above
# Outline: as §1
# HGGX6 [4] = H3.3 G34R paediatric high-grade glioma line; assay: as above
# Outline: as §1
# DIPGX29 [5] = assay: area under dose-response curve of % growth inhibition (log2 RLU vs DMSO / staurosporine), 1e-11 to 1e-4 M (% x log10 M); higher = more growth inhibition
# Outline: (§2)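 Area under the curve was derived with the trapezoid rule from a fitted log-logistic curve, switching to a smoothing spline if the sigmoid fit failed. It rested on per-plate % activity between solvent and positive controls, calculated from log2-transformed CellTiter-Glo luminescence after 7 days of exposure (3 days for iAstro) at 37 °C, 5% CO2. Patient-derived pHGG/DIPG lines and astrocytes on 1% Geltrex-coated 384-well plates received a 10-point threefold dilution series, mean top concentration 35 μM, in triplicate.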
# DIPGX37 [6] = assay: as above
# Outline: as §2
# HGGX39 [7] = assay: as above
# Outline: as §2
# HGGX6 [8] = assay: as above
# Outline: as §2
# DIPGX29 [9] = assay: EC50 (inflection of fitted growth-inhibition curve) (log10 M)
# Outline: as §1
# DIPGX37 [10] = assay: as above
# Outline: as §1
# HGGX39 [11] = assay: as above
# Outline: as §1
# HGGX6 [12] = assay: as above
# Outline: as §1
Compound,maximal growth inhibition (DIPGX29 [1]) [%],maximal growth inhibition (DIPGX37 [2]) [%],maximal growth inhibition (HGGX39 [3]) [%],maximal growth inhibition (HGGX6 [4]) [%],area under dose-response curve (DIPGX29 [5]),area under dose-response curve (DIPGX37 [6]),area under dose-response curve (HGGX39 [7]),area under dose-response curve (HGGX6 [8]),EC50 (log10 M) (DIPGX29 [9]),EC50 (log10 M) (DIPGX37 [10]),EC50 (log10 M) (HGGX39 [11]),EC50 (log10 M) (HGGX6 [12])
Cc1cc(C2CCCCC2)n(O)c(=O)c1 [CICLOPIROX],57.2,58.3,72.3,63.9,138,142,84.1,142,-6.42,-6.44,-5.04,-6.23
C[C@@H](NCCCc1cccc(C(F)(F)F)c1)c1cccc2ccccc12 [CINACALCET],82.1,90.5,94.2,84.4,99.9,112,111,98.5,-5.03,-5.04,-5.05,-5.03
CC(C)/N=c1\cc2n(-c3ccc(Cl)cc3)c3ccccc3nc-2cc1Nc1ccc(Cl)cc1 [CLOFAZIMINE],54.4,83.8,90.6,71.5,76.3,84.9,79.8,65.3,-5.16,-4.91,-4.88,-4.91
CCN(CC)CCOc1ccc(C(=C(Cl)c2ccccc2)c2ccccc2)cc1 [CLOMIPHENE],77,84.8,81.6,71.4,71.2,102,139,80.2,-4.92,-5.2,-5.71,-5.11
COc1cccc2c1C(=O)c1c(O)c3c(c(O)c1C2=O)C[C@@](O)(C(C)=O)C[C@@H]3O[C@H]1C[C@H](N)[C@H](O)[C@H](C)O1 [DAUNORUBICIN],83.3,82.2,76.1,76.4,141,160,159,124,-5.69,-5.94,-6.13,-5.62
CCCCCCCCCCCC[N+](C)(C)CCOc1ccccc1 [DOMIPHEN],80.5,85.2,81,71.7,95.4,109,129,79.9,-5.18,-5.28,-5.59,-5.11
CCCCOc1ccc(C(=O)CCN2CCCCC2)cc1 [DYCLONINE],87.1,95.1,98.8,87.9,92.7,129,110,89.2,-4.83,-5.35,-5.12,-5.02
OCCN1CCN(CCCN2c3ccccc3Sc3ccc(C(F)(F)F)cc32)CC1 [FLUFENAZINE],61.6,65.2,65.9,63.5,45.7,59.8,64,67.4,-4.74,-4.74,-4.77,-4.76
Fc1ccc(C(c2ccc(F)cc2)N2CCN(C/C=C/c3ccccc3)CC2)cc1 [FLUNARIZINE],71.7,74.5,83,65.9,61.5,62.8,73.5,56.4,-4.86,-4.84,-4.91,-4.86
C[C@@H](O[C@H]1OCCN(Cc2nn(P(=O)(O)O)c(=O)[nH]2)[C@H]1c1ccc(F)cc1)c1cc(C(F)(F)F)cc(C(F)(F)F)c1 [FOSAPREPITANT],60.6,69.8,82.4,56,63.6,70.6,66.7,47.1,-4.84,-4.83,-4.81,-4.84
CCn1c(=O)c(-c2ccc(Cl)cc2Cl)cc2cnc(Nc3ccc(N4CCNCC4)c(F)c3)nc21 [FRAX486],80.4,81,84.5,73.5,135,142,139,97.4,-5.23,-5.3,-5.64,-5.32
COc1cc2ncnc(Nc3ccc(F)c(Cl)c3)c2cc1OCCCN1CCOCC1 [GEFITINIB],58.3,69.8,73.7,65.7,54.3,46.1,47.9,47.8,-4.7,-4.66,-4.65,-4.67
CN(C)c1ccc(C(=C2C=CC(=[N+](C)C)C=C2)c2ccc(N(C)C)cc2)cc1 [GENTIAN VIOLET],128,124,121,112,158,152,164,133,-5.15,-5.13,-4.97,-5.16
COc1cc(C(=O)N2CC[C@@H](O)[C@@H](N)C2)cc2nc(-c3cc4ccccc4n3CC3CC3)n(C)c12 [GSK-484],50.1,64,20.9,45.4,54.6,67.7,20.6,48.9,-4.94,-4.89,-4.99,-4.98
C=CC(=O)N1CCC[C@@H](n2nc(-c3ccc(Oc4ccccc4)cc3)c3c(N)ncnc32)C1 [IBRUTINIB],29.8,41.2,53.1,35.5,49.8,53.7,50.1,35.8,-5,-4.96,-4.94,-5.01
O=C1[C@H](Cc2ccc(O)cc2)N2C(=O)CCN(C(=O)NCc3ccccc3)[C@H]2CN1Cc1cccc2ccccc12 [ICG001],21.3,33.4,32.6,31.8,29.3,51.9,52.2,41.9,-5.37,-5.54,-5.67,-5.14

Compound,maximal growth inhibition (DIPGX29 [1]) [%],maximal growth inhibition (DIPGX37 [2]) [%],maximal growth inhibition (HGGX39 [3]) [%],maximal growth inhibition (HGGX6 [4]) [%],area under dose-response curve (DIPGX29 [5]),area under dose-response curve (DIPGX37 [6]),area under dose-response curve (HGGX39 [7]),area under dose-response curve (HGGX6 [8]),EC50 (log10 M) (DIPGX29 [9]),EC50 (log10 M) (DIPGX37 [10]),EC50 (log10 M) (HGGX39 [11]),EC50 (log10 M) (HGGX6 [12])
CC(C)(C)c1cc(C(C)(C)C)c(NC(=O)c2c[nH]c3ccccc3c2=O)cc1O [IVACAFTOR],90.9,97,97.1,91,90.3,99.3,101,91.8,-4.99,-4.98,-5.04,-5.01
CC(=O)N1CCN(c2ccc(OCC3COC(Cn4ccnc4)(c4ccc(Cl)cc4Cl)O3)cc2)CC1 (centres undefined) [KETOCONAZOLE],40.2,37.6,68.2,56.7,40.9,36.1,73.6,53.4,-4.92,-4.96,-5.12,-4.94
CCOC(=O)C1=C(C)NC(C)=C(C(=O)OCC)C1c1ccccc1/C=C/C(=O)OC(C)(C)C [LACIDIPINE],87.2,91.1,90.8,74.3,72.8,75.3,76.3,63.4,-4.84,-4.83,-4.84,-4.86
CS(=O)(=O)CCNCc1ccc(-c2ccc3ncnc(Nc4ccc(OCc5cccc(F)c5)c(Cl)c4)c3c2)o1 [LAPATINIB],76.7,78.4,76.9,76.8,70.3,72.5,55,57.8,-4.72,-4.7,-4.71,-4.69
Cc1cn(CCN2CCN(c3ccccc3-c3cc(C#N)cc(C(=O)NCCCN4CCCC4)c3)CC2)c2ccccc12 [LLY-507],76.7,75.6,79.1,79.4,86.5,92.2,66.6,92.5,-5.13,-5.22,-4.84,-5.12
CN(C)C(=O)C(CCN1CCC(O)(c2ccc(Cl)cc2)CC1)(c1ccccc1)c1ccccc1 [LOPERAMIDE],81.5,93.9,80.5,79.2,75.5,84,60.8,58.7,-4.79,-4.74,-4.75,-4.74
CC(C)OC(=O)C(C(=O)OC(C)C)=C1SC=CS1 [MALOTILATE],35.2,57.4,83.7,34.8,30.3,50.9,88.2,32.7,-4.88,-4.89,-4.94,-4.94
Cc1ccc(NC(=O)c2ccc(CN3CCN(C)CC3)cc2)cc1Nc1nc(-c2cccnc2)cs1 [MASITINIB],72.3,81,81.1,78.3,57.8,52.8,66.4,64.6,-4.69,-4.65,-4.71,-4.66
Cc1cccc(CN2CCN(C(c3ccccc3)c3ccc(Cl)cc3)CC2)c1 (centres undefined) [MECLIZINE],41.9,79.1,48.7,41.1,42.8,85.1,44.3,35.5,-4.89,-4.83,-4.91,-4.86
CN(C)c1ccc2nc3ccc(=[N+](C)C)cc-3sc2c1 [METHYLENE BLUE],56.7,54.8,50.7,69.6,76.5,67.9,76.9,89.6,-5.31,-5.04,-5.48,-5.03
Cc1c(CN2CCC(Nc3ncnc4sc(CC(F)(F)F)cc34)CC2)ccc2c1cc(C#N)n2Cc1cn[nH]c1 [MI-503],74,72.1,74.2,71.9,92.6,70.7,84.8,83.9,-4.9,-4.98,-5.14,-4.9
Clc1ccc(COC(Cn2ccnc2)c2ccc(Cl)cc2Cl)c(Cl)c1 (centres undefined) [MICONAZOLE],45.9,61.9,42.1,41.5,46.5,48.6,39.2,35.5,-4.89,-4.79,-4.94,-4.87
CO[C@@]12[C@H](COC(N)=O)C3=C(C(=O)C(C)=C(N)C3=O)N1C[C@@H]1N[C@@H]12 [MITOMYCIN C],62.3,73,69.7,66.2,78,95.2,91.5,75.4,-4.78,-4.87,-4.78,-4.76
COc1c(C)c2c(c(O)c1C/C=C(\C)CCC(=O)OCCN1CCOCC1)C(=O)OC2 [MYCOPHENOLATE MOFETIL],24.8,30.5,24.4,20,36.4,41.2,39.6,30.4,-5.33,-5.33,-5.61,-5.49
O=C(N/N=C/c1ccc([N+](=O)[O-])o1)c1ccc(O)cc1 [NIFUROXAZIDE],81.1,81.6,49.3,74.2,73.5,78.2,39.4,56.6,-4.78,-4.75,-4.81,-4.77
CCCCCCCCOc1ccccc1C(=O)Nc1ccc(C(=O)OCC[N+](C)(CC)CC)cc1 [OTILONIUM],22.4,26.4,77.5,69.5,16.8,22.7,74.2,61.2,-4.75,-4.86,-4.96,-4.88
